“And” between values parts separate entries of the source, which are not always exact repeats. Equal values may be shown once.
Legend:
Adenosine A2A receptor [1] = target: T1, Adenosine A2A receptor (Homo sapiens, UniProt P29274); experiment: Adenosine A2A receptor competitive binding assay (Tag-lite HTRF); settings: Tag-lite adenosine A2A receptor ligand binding
Method: Adenosine A2A Receptor Competitive Binding Assay
The Tag-lite adenosine A2A receptor ligand binding assay is a homogeneous alternative to radioligand binding assay and developed by Cisbio (Bedford, Mass.). We carried out this assay following Cisbio's instructions with minor modification. Pre-transfected, fluorescent donor-labelled cells (Cisbio Cat#: C1TT1A2A, 200 testes) was stored at −80° C. and thawed right before use. Cells were washed once with 5 ml TLB and gently resuspended in 2 ml TLB. 4 μl suspended cells was dispensed into each well of white low-volume 384-well plate (Greiner Bio-One). Serial dilutions of compounds were prepared in Tag-lite buffer (TLB, Cisbio Cat #: LABMED) to a DMSO concentration of 0.6%. After adding 4 μl of compound dilutions to each well, 4 μl60 nM Adenosine A2A receptor red antagonist fluorescent ligand (Cisbio Cat #: L0058RED) was dispensed to each well. The 384-well assay plate was centrifuged briefly and incubated at room temperature for 2 h. HTRF signals were measured using CIARIOstar plate reader (BMG Labtech).

Adenosine A2A receptor [2] = target: T1, Adenosine A2A receptor; experiment: cAMP assay in 293A cells stably expressing the adenosine A2A receptor (CGS21680 stimulation, HTRF); format: cell-based; set-up: expressed in transfected cells; host or cells: 293A cells (Invitrogen, Cat# R705-07) infected with A2A-expressing lentivirus (custom packaged by Biosettia), puromycin selected; settings: 293A-A2AR cells, 0.1% BSA, values separated by / are repeat determinations
[3] = 2 h room temperature, values separated by / are repeat determinations
[4] = 8 nM CGS, read-out: cAMP (nM) 0.1% BSA, 8 nM CGS
[5] = 1 uM CGS, read-out: cAMP (nM) 0.1% BSA, 1 uM CGS

T1 sequence (P29274 whole entry): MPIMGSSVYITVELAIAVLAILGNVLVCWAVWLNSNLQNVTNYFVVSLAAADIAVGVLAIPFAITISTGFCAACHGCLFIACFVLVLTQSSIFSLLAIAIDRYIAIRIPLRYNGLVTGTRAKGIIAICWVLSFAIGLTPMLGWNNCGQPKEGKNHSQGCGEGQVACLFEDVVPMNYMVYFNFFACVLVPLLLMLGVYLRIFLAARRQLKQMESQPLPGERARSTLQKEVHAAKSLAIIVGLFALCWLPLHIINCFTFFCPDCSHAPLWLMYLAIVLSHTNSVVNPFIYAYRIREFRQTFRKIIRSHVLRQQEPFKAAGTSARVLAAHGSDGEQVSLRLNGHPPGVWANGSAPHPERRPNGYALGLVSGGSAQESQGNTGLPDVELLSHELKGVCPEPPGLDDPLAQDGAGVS

| IC50 (Adenosine A2A receptor [1]; [3]) | IC50 (Adenosine A2A receptor [2]; [4]) | IC50 (Adenosine A2A receptor [2]; [5]) [nM] | IC50 (Adenosine A2A receptor [1]; HTRF) [nM] | Structure (SMILES) |
| --- | --- | --- | --- | --- |
| 11.1 nM | 40 nM and 17 nM | 4040 | – | CNC(=O)COc1nc(N)nc(-c2ccccc2)c1-c1cc(C)nc(C(F)(F)F)c1 [Example 1, 2-((2-amino-5-(2-methyl-6-(trifluoromethyl)pyridin-4-yl)-6-phenylpyrimidin-4-yl)oxy)-N-methylacetamide] |
| 30.5 nM | 6.8 nM and 3.4 nM | – | – | Cc1cc(-c2c(OCC(=O)N(C)C)nc(N)nc2-c2ccccc2)cc(C(F)(F)F)n1 [Example 2, 2-((2-amino-5-(2-methyl-6-(trifluoromethyl)pyridin-4-yl)-6-phenylpyrimidin-4-yl)oxy)-N,N-dimethylacetamide] |
| 7.21 nM | 3.2 nM | – | – | CCN(CC)C(=O)COc1nc(N)nc(-c2ccco2)c1-c1cc(C)nc(C(F)(F)F)c1 [Example 11, 2-((2-amino-6-(furan-2-yl)-5-(2-methyl-6-(trifluoromethyl)pyridin-4-yl)pyrimidin-4-yl)oxy)-N,N-diethylacetamide] |
| 13.8 nM | 2 nM | – | – | CCN(CC)C(=O)COc1nc(N)nc(-c2ccc(C)o2)c1-c1cc(C)nc(C(F)(F)F)c1 [Example 12, 2-((2-amino-5-(2-methyl-6-(trifluoromethyl)pyridin-4-yl)-6-(5-methylfuran-2-yl)pyrimidin-4-yl)oxy)-N,N-diethylacetamide] |
| 303 nM | 161 nM | – | – | CCN(CC)C(=O)[C@@H](C)Oc1nc(N)nc(-c2ccccc2)c1-c1cc(C)nc(C(F)(F)F)c1 [Example 13, (R)-2-((2-amino-5-(2-methyl-6-(trifluoromethyl)pyridin-4-yl)-6-phenylpyrimidin-4-yl)oxy)-N,N-diethylpropanamide] |

More lines, now with the values behind:

| Structure (SMILES) | IC50 (Adenosine A2A receptor [1]; [3]) | IC50 (Adenosine A2A receptor [2]; [4]) | IC50 (Adenosine A2A receptor [2]; [5]) [nM] | IC50 (Adenosine A2A receptor [1]; HTRF) [nM] |
| --- | --- | --- | --- | --- |
| Cc1cc(-c2c(NCc3cccc(CO[C@H]4CCOC4)n3)nc(N)nc2-c2ccccc2)cc(C(F)(F)F)n1 [Example 4, (S)-5-(2-methyl-6-(trifluoromethyl)pyridin-4-yl)-6-phenyl-N4-((6-(((tetrahydrofuran-3-yl)oxy)methyl)pyridin-2-yl)methyl)pyrimidine-2,4-diamine] | 139 nM | 482 nM and 288 nM | 23100 | – |
| Cc1cc(-c2c(OCc3cccc(CO[C@H]4CCOC4)n3)nc(N)nc2-c2ccccc2)cc(C(F)(F)F)n1 [Example 5, (S)-5-(2-methyl-6-(trifluoromethyl)pyridin-4-yl)-4-phenyl-6-((6-(((tetrahydrofuran-3-yl)oxy)methyl)pyridin-2-yl)methoxy)pyrimidin-2-amine] | 8.97 nM | 11.5 nM | – | – |
| Cc1cc(-c2c(OCCCN3CCN(c4ccc(F)cc4F)CC3)nc(N)nc2-c2ccccc2)cc(C(F)(F)F)n1 [Example 6, 4-(3-(4-(2,4-difluorophenyl)piperazin-1-yl)propoxy)-5-(2-methyl-6-(trifluoromethyl)pyridin-4-yl)-6-phenylpyrimidin-2-amine] | 74.3 nM | 183 nM | – | – |
| Cc1cc(-c2c(OCc3cccc(CO[C@H]4CCOC4)n3)nc(N)nc2-c2ccc(C)o2)cc(C(F)(F)F)n1 [Example 7, (S)-5-(2-methyl-6-(trifluoromethyl)pyridin-4-yl)-4-(5-methylfuran-2-yl)-6-((6-(((tetrahydrofuran-3-yl)oxy)methyl)pyridin-2-yl)methoxy)pyrimidin-2-amine] | 58 nM | 380 nM | – | – |
| Cc1cc(-c2c(OCCc3ccccc3)nc(N)nc2-c2ccccc2)cc(C(F)(F)F)n1 [Example 8, 5-(2-methyl-6-(trifluoromethyl)pyridin-4-yl)-4-phenethoxy-6-phenylpyrimidin-2-amine] | 10.2 nM and 18 nM | 7.4 nM and 7.7 nM | – | – |
| Cc1cc(-c2c(OCC(=O)N3CCOCC3)nc(N)nc2-c2ccccc2)cc(C(F)(F)F)n1 [Example 10, 2-((2-amino-5-(2-methyl-6-(trifluoromethyl)pyridin-4-yl)-6-phenylpyrimidin-4-yl)oxy)-1-morpholinoethan-1-one] | 25.2 nM | 8.8 nM and 51.5 nM and 24.2 nM | – | – |
| CCn1cnnc1COc1nc(N)nc(-c2ccc(F)cc2)c1-c1cc(C)nc(C(F)F)c1 [Example 222, 5-(2-(difluoromethyl)-6-methylpyridin-4-yl)-4-((4-ethyl-4H-1,2,4-triazol-3-yl)methoxy)-6-(4-fluorophenyl)pyrimidin-2-amine] | – | – | – | 15 |

Source: patent US20210355104A1, “ADENOSINE RECEPTOR BINDING COMPOUNDS” (Nikang Therapeuticsm Inc., priority 2018, published 2021)
